From patent publication US20230234936A1, “COMPOUND FOR TARGETING AND DEGRADING PROTEIN, AND PREPARATION METHOD THEREFOR AND USE THEREOF” (SHANGHAI LEADINGTAC PHARMACEUTICAL CO., LTD., priority 2020, published 2023) come the findings set out here.

Assay [1] concerns the target T1, IRAK4 protein in THP-1 cells (Homo sapiens, UniProt Q9NWZ3).
T1 construct: endogenous in cells; host or cells: THP-1
T1 sequence (Q9NWZ3 1-460): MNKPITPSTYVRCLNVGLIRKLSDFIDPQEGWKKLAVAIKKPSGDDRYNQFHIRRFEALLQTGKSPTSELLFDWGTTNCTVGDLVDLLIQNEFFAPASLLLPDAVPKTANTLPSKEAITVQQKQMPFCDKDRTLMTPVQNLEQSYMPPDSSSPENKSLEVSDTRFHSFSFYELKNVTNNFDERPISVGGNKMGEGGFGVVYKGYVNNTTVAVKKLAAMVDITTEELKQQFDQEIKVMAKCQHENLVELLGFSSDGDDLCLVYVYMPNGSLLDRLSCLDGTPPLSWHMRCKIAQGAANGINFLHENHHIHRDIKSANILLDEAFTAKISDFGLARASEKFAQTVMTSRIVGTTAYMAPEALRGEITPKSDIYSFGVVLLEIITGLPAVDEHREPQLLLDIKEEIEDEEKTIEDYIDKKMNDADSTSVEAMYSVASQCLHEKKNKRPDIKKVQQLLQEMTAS
Briefly: Degradation of IRAK4 in THP-1 cells (Western blot). The class given is cell-based. As to conditions: 24 hours, compound 1-3000 nM. The method, boiled down: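 THP-1 cells (5×10^5/well) treated 24 h with compound at 1–3000 nM final. IRAK4 in lysates quantified by Western blot, normalized to internal reference and compared with control to give degradation rate; DC50 and Dmax from nonlinear fit of log concentration.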

Assay [2] has as its system Interleukin-6 (IL-6) in LPS-induced human PBMC. Briefly: Cytokine secretion of LPS-induced human PBMC, IL-6 AlphaLISA detection. As to conditions: inhibition of IL-6, compound 1 hour or 20 hours, then LPS 100 ng/mL 5 hours. The class given is cell-based. The method, then: Frozen human PBMC (Milestone, PB010C) was resuspended to RPMI 1640 medium (Gibco, A1049101) after resuscitation, supplemented with 10% fetal bovine serum (Gibco, 10099141), 100 U/mL penicillin and 100 μg/mL streptomycin (Gibco, 15140122). On the same day, 150 μL of PBMC was spread in each well of a 96-well transparent cell plate (Labserv, 310109008), so that the cell density was 2×10^5 cells/well. Then 50 μL diluted compound solution was added to the corresponding cell-covered wells to make the final concentration of the compound in the range of 0.026-10000 nM. The final concentration of DMSO was 0.25%. After the drug-treated cell plate was cultured at 37° C. for 1 hour or 20 hours in a 5% CO2 incubator, 10 μL LPS (0111:B4) (Sigma, L4391) was added with a final concentration of 100 ng/mL. The cell plate was again placed in a 5% CO2 incubator at 37° C. for 5 hours, centrifuged at 2000 rpm for 10 minutes, and 100 μL cell supernatant was taken from each well and transferred to a new 96-well transparent cell plate for cytokine concentration test, which was frozen at −80° C. to be tested.
The concentration of IL-6 in the supernatant of LPS-induced human PBMC cells was determined using interleukin-6 (IL-6) AlphaLISA detection kit (PerkinElmer, AL223 C).
According to the product instructions, IL-6 standard solutions with different concentrations were prepared in the concentration range of […]. 2 μL of IL-6 standard solution at various concentrations and the cell supernatant sample to be tested were taken, respectively added to white 384 well plates (PerkinElmer, 6007299), then a mixed solution of 8 μL of 5× anti-IL-6 receptor beads (final concentration: 10 μg/mL) and biotin-labeled anti-IL-6 antibody (final concentration 1 nM) was added to each well, and incubated at 23° C. for 60 minutes. Finally, 10 μL of 2× streptavidin-labeled donor beads (final concentration: 40 μg/mL) were added to each well and incubated at 23° C. for 30 minutes in the absent of light. After the incubation, the AlphaLISA signal value was determined in the AlphaScreen standard setting mode on the microplate reader EnVision(PerkinElmer, 2105). The standard curve was drawn by the AlphaLISA signal value of each concentration IL-6 standard solution, and then based on the corresponding concentration on the standard curve for the AlphaLISA signal value of the sample to be tested, the IL-6 concentration of each cell lysis supernatant was determined. Compared with the IL-6 concentration of the control group, the inhibition rate of the compound at each concentration was calculated, and then IC50 value of the compound was calculated by fitting the nonlinear curve with the logarithmic concentration-inhibition rate by GraphPad Prism 7.

In assay [1], `CC(C)(O)c1cc2nn(C3CCN(CC4CCC5(CC4)CCN(C(=O)c4ccc(Cl)c(N6CCC(=O)NC6=O)c4)CC5)CC3)cc2cc1NC(=O)c1cccc(C(F)(F)F)n1` [Example 31, N-(2-(1-((3-(4-chloro-3-(2,4-dioxotetrahydro-pyrimidin-1 (2H)-yl)benzoyl)-3-azaspiro [5.5]undec-9-yl)methyl)piperdin-4-yl)-6-(2-hydroxyprop-2-yl)-2H-indazol-5-yl)-6-(trifluoro-methyl) pyridinecarbox-amide] gave a DC50 of 2.6 nM and a Dmax of 97.1%. The same molecule gave a half-inhibitory concentration (IC50) in assay [2] of 1.8 nM.

`COc1cc2nn(C3CCN(CC4CCN(CCOc5ccc6c(c5)C(=O)N(C5CCC(=O)NC5=O)C6=O)CC4)CC3)cc2cc1NC(=O)c1cccc(C(F)(F)F)n1` (centres unmarked) [Control group 2, N-(2-(1-((1-(2-((2-(2,6-dioxopiperidin-3-yl)-1,3-dioxoisoindol-5-yl)oxy)ethyl)piperidin-4-yl)methyl)piperidin-4-yl)-6-methoxy-2H-indazol-5-yl)-6-(trifluoromethyl) pyridinecarboxamide, reference compound] displayed a DC50 in assay [1] of 40.6 nM. Besides, 2050 nM corresponded to half-maximal inhibition in assay [2] (IC50).

As for `CN(CC1CCN(c2cccc3c2C(=O)N(C2CCC(=O)NC2=O)C3=O)CC1)C[C@H]1CC[C@H](n2cc3cc(NC(=O)c4cccc(C(F)(F)F)n4)c(C(C)(C)O)cc3n2)CC1` (some centres unmarked) [Control group 3, N-(2-((1r,4r)-4-((((1-(2-(2,6-dioxopiperidin-3-yl)-1,3-dioxoisoindolin-4-yl)piperidin-4-yl)methyl) (methyl)amino)methyl)cyclohexyl)-6-(2-hydroxyprop-2-yl)-2H-indazol-5-yl)-6-(trifluoromethyl) pyridinecarboxamide, reference compound], in assay [1], the 50% degradation concentration (DC50) worked out at 19.8 nM and the Dmax was determined as 75.3%. 47.5 nM corresponded to half-maximal inhibition in assay [2] (IC50).
